Common to all, as to experiment: inhibition of tumour cell growth, NCI panel, 48 h
Assay [1] deals with M14.
Assay [2] relates to Malme-3M.
Assay [3] relates to HOP-92.
Assay [4] relates to HCC 2998.
The test system of assay [5] is NCI-H522.
Assay [6] has as its system HOP-62.
Assay [7] concerns HCT-116.
The test system of assay [8] is Hs-578T.
Assay [9] relates to 786-0.
For assay [10], the system named is BT-549.
Assay [11] concerns SW-620.
The subject of assay [12] is SF-268.
The subject of assay [13] is IGROV-1.
Assay [14] deals with SN12C.
Assay [15] relates to U-251.
The test system of assay [16] is OVCAR-4.
Assay [17] concerns SK-MEL-5.
In assay [18] the test system is EKVX.
The subject of assay [19] is OVCAR-5.

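How tested: cells in 96-well plates exposed to compound for 48 hours at five concentrations. GI50: concentration for 50% inhibition of growth.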 The source made the active and inactive calls. Cut-off read from the data, not from the text of the source: active = GI50 up to about 1.1 µM and inactive = higher.

As for `c1ccc(C/C(=N\Nc2nc3ccccc3[nH]2)c2ccccn2)cc1`, the GI50 in assay [1] is < 0.0288 µM (active); in assay [2], < 0.0347 µM (active); in assay [3] it was 0.0206 µM (active); in [4], 13.1 µM (inactive); in assay [5], < 0.01 µM (active); in [6], < 0.0232 µM (active). Besides, the GI50 in [7] was < 0.01 µM (active); in assay [8], 0.879 µM (active); in assay [9], 0.0316 µM (active); in assay [10], 0.248 µM (active); in [11] it was < 0.01 µM (active); in assay [12], 0.0444 µM (active). Moreover, the GI50 in assay [13] was < 0.01 µM (active); in assay [14], 0.0295 µM (active); in [15] it was < 0.0221 µM (active); in [16], < 0.01 µM (active); in assay [17] it was 0.0408 µM (active).
For the molecule `N/C(=N\N/C=C1\C=Nc2cc(C(F)(F)F)ccc2C1=O)NO`, the GI50 in assay [1], in assay [2], in assay [3], in assay [4], in assay [5] and in assay [6] was > 10 µM (inactive) throughout. Also, the GI50 in [7], in assay [18], in assay [8], in [9], in [10] and in assay [19] was > 10 µM (inactive) each time. Further, the GI50 in assay [11], in assay [12], in [13], in assay [14], in assay [15] and in assay [16] was > 10 µM (inactive) each time. Moreover, in [17], the GI50 is > 10 µM (inactive).
Turning to `C[N+](C)(CCNc1ccc(NCC[N+](C)(C)Cc2ccc([N+](=O)[O-])cc2)c2c1C(=O)c1ccccc1C2=O)Cc1ccc([N+](=O)[O-])cc1`, the GI50 in assay [1], in [2], in [3], in [4], in assay [5] and in assay [6] was > 100 µM (inactive) each time. Moreover, the GI50 in assay [7], in assay [18], in assay [8], in [9], in assay [10] and in assay [19] was > 100 µM (inactive) in each case. In addition, the GI50 in [11], in assay [12], in assay [13], in [14], in [15] and in assay [16] was > 100 µM (inactive) in each case. Besides, the GI50 in assay [17] was > 100 µM (inactive).
With `O=C1CCc2c(sc3ncnc(Nc4cccc(Br)c4)c23)C1`, the GI50 in assay [1] was 3.42 µM (inactive); in [2], 1.76 µM (inactive); in [3], 2.54 µM (inactive); in [4], 4.26 µM (inactive); in assay [5], 2.1 µM (inactive); in [6], 5.53 µM (inactive). In addition, the GI50 in assay [7] was 3.56 µM (inactive); in assay [18], 2.19 µM (inactive); in [8] it was 4.15 µM (inactive); in [9] it was 4.43 µM (inactive); in [10], 3.77 µM (inactive); in assay [19], 6.98 µM (inactive). For the same molecule, the GI50 in [11] was 3.62 µM (inactive); in assay [12], 3.92 µM (inactive); in assay [13] it was 1.68 µM (inactive); in assay [14] it was 3.4 µM (inactive); in [15] it was 2.81 µM (inactive); in [16], 2.52 µM (inactive). Further, the GI50 in assay [17] is 1.88 µM (inactive).
In the case of `Cc1ccc(S(=O)(=O)N/N=C2\CCCCCCCCCCC2CN(C)C)cc1` (stereo not given), the GI50 is 17.1 µM (inactive) in [1]; 16.6 µM (inactive) in assay [2]; 10.3 µM (inactive) in assay [3]; 8.43 µM (inactive) in [4]; 14.3 µM (inactive) in [5]; 17.6 µM (inactive) in assay [6]. Besides, the GI50 is 14.7 µM (inactive) in assay [7]; 22.9 µM (inactive) in assay [18]; 15 µM (inactive) in [8]; 15.9 µM (inactive) in [9]; 17.7 µM (inactive) in assay [10]; 16.3 µM (inactive) in assay [19]. For the same molecule, the GI50 was 17.9 µM (inactive) in assay [11]; 21.3 µM (inactive) in [12]; 16 µM (inactive) in assay [13]; 20.6 µM (inactive) in assay [14]; 15.9 µM (inactive) in [15]; 18 µM (inactive) in assay [16]. For the same molecule, the GI50 in [17] is 11.2 µM (inactive).
On to `NCC1OC(OC2C(N)CC(N)C(O)C2OC2OC(CO)C(O)C2O)C(N)C(O)C1O` (stereo not given), for which the GI50 in [1] was > 50 µM (inactive); in [2] it was > 100 µM (inactive); in [3], > 50 µM (inactive); in [4], > 50 µM (inactive); in assay [5], > 100 µM (inactive); in assay [6] it was > 50 µM (inactive). The GI50 in assay [18] was > 100 µM (inactive); in assay [8], > 100 µM (inactive); in [9], > 50 µM (inactive); in assay [10], > 100 µM (inactive); in assay [19] it was > 100 µM (inactive); in assay [11], > 100 µM (inactive). For the same molecule, the GI50 in assay [12] is > 100 µM (inactive); in assay [13], > 50 µM (inactive); in assay [14], > 50 µM (inactive); in [15], > 100 µM (inactive); in assay [16], > 100 µM (inactive); in assay [17], > 50 µM (inactive).
On to `COc1ccccc1CNC1=Nc2ccncc2S(=O)(=O)N1c1ccccc1`, for which the GI50 in assay [1] is > 100 µM (inactive); in assay [2], 37.7 µM (inactive); in [3] it was 39.7 µM (inactive); in assay [4] it was > 100 µM (inactive); in assay [5], 25.1 µM (inactive); in assay [7], 70.5 µM (inactive). Also, the GI50 in [18] is > 100 µM (inactive); in assay [8], 74.8 µM (inactive); in [9] it was > 100 µM (inactive); in assay [10], > 100 µM (inactive); in assay [19], > 100 µM (inactive); in assay [11], > 100 µM (inactive). The GI50 was > 100 µM (inactive) in [13]; > 100 µM (inactive) in [14]; 52.1 µM (inactive) in assay [15]; > 100 µM (inactive) in assay [16]; 34 µM (inactive) in [17].
In the case of `Nc1ccc2ccc(N3CCNCC3)nc2n1`, the GI50 in assay [1] was 55.1 µM (inactive); in assay [2], 38.9 µM (inactive); in assay [3], 46 µM (inactive); in [4], 44.2 µM (inactive); in [5] it was 45.3 µM (inactive); in assay [6], 23.9 µM (inactive). The GI50 in assay [7] was 43.2 µM (inactive); in assay [18], 74.1 µM (inactive); in assay [8], 47.5 µM (inactive); in assay [9] it was 61.7 µM (inactive); in [10], 65.8 µM (inactive); in [19] it was 32.4 µM (inactive). For the same molecule, the GI50 in assay [11] was 47.6 µM (inactive); in assay [12] it was 44.7 µM (inactive); in assay [13], 19.5 µM (inactive); in [14], 51.2 µM (inactive); in assay [15], 80.2 µM (inactive); in assay [16], 57.7 µM (inactive).
In the case of `CN1C(=O)C(C(=O)Nc2ccccn2)C2C[C@@]1(C)Oc1ccccc12` (stereo not given in full), the GI50 in assay [1], in assay [2], in [3], in [4], in assay [5] and in [6] was > 100 µM (inactive) in each case. For the same molecule, the GI50 in assay [7] is > 100 µM (inactive); in assay [18], 63.5 µM (inactive); in [8], > 100 µM (inactive); in assay [9], > 100 µM (inactive); in [10] it was > 100 µM (inactive); in [19], > 100 µM (inactive). Also, the GI50 in assay [11], in assay [12], in [13], in assay [15], in assay [16] and in [17] was > 100 µM (inactive) in each case.
Take `O=C1c2cc([N+](=O)[O-])sc2C(=O)c2c([N+](=O)[O-])csc21`: the GI50 is 0.367 µM (active) in assay [1]; 0.274 µM (active) in [2]; 0.29 µM (active) in assay [3]; 0.782 µM (active) in [4]; 0.6 µM (active) in assay [5]; 0.456 µM (active) in assay [7]. Further, the GI50 in [18] is 1.48 µM (inactive); in assay [8], 0.65 µM (active); in [9] it was 0.483 µM (active); in assay [10] it was 0.802 µM (active); in assay [19] it was 1.65 µM (inactive); in [11], 0.31 µM (active). The GI50 in assay [12] was 0.708 µM (active); in assay [13], 0.4 µM (active); in assay [14], 0.542 µM (active); in assay [15], 0.379 µM (active); in assay [16] it was 0.64 µM (active); in assay [17], 0.166 µM (active).
`Cc1cc2[nH]c3c(C#N)c4c(c(=O)n3c2cc1C)CCCC4`: the GI50 in assay [1] is 14.5 µM (inactive); in [2] it was > 100 µM (inactive); in assay [3], 87.7 µM (inactive); in assay [4] it was > 100 µM (inactive); in assay [5], > 100 µM (inactive); in [7], > 100 µM (inactive). Further, the GI50 in assay [18] is > 100 µM (inactive); in assay [8] it was 86.1 µM (inactive); in assay [9], > 100 µM (inactive); in assay [10], > 100 µM (inactive); in [19], 18.7 µM (inactive); in assay [11], > 100 µM (inactive). The GI50 in [12] was 79.3 µM (inactive); in assay [13], > 100 µM (inactive); in [14], > 100 µM (inactive); in assay [15], 40.2 µM (inactive); in [16], > 100 µM (inactive); in assay [17], 32.6 µM (inactive).

The values are drawn from ChEMBL document CHEMBL1201862, “PubChem BioAssay data set” (2004).
